# Laboratory results: EPA's ToxRefDB 2
# Tests used:
# [1] = tested on: rat; details: Subchronic oral toxicity in rodents, fischer, Feed, dose end: 14 week, group: systemic
# [2] = tested on: mouse; details: Subchronic oral toxicity in rodents, b6c3f1, Feed, dose end: 14 week, group: systemic
# [3] = tested on: rat; details: Combined chronic toxicity/carcinogenicity, fischer, Oral, Feed, dose end: 2 year, group: systemic
# [4] = tested on: mouse; details: Carcinogenicity; b6c3f1; Oral; Feed; dose end: 2 year; group: systemic; systemic / pathology microscopic / liver / hypertrophy
# [5] = tested on: rat; details: Subchronic oral toxicity in rodents, sprague dawley, Feed, dose end: 90 day, group: systemic, systemic / in life observation / clinical signs / soft stools + systemic / in life observation / clinical signs / defecation (diarrhea)
# [6] = tested on: rat; details: Multigenerational reproductive toxicity study, sprague dawley, Oral, Feed, dose end: 2 generation
# [7] = tested on: dog; details: Chronic toxicity; beagle; Oral; Feed; dose end: 12 month; group: systemic; systemic / hematology / anemia / anemia - hemolytic + systemic / hematology / erythrocyte (rbc) count differential / erythrocyte (rbc) + …
# [8] = tested on: rat; details: Combined chronic toxicity/carcinogenicity, sprague dawley, Oral, Feed, dose end: 31 month, group: systemic
# [9] = tested on: mouse; details: Carcinogenicity, cd1, Oral, Feed, dose end: 78 week, group: systemic
# [10] = tested on: primate; details: Subchronic oral toxicity in nonrodent, rhesus, Feed, dose end: 6 month, group: systemic, systemic / organ weight / thyroid gland / absolute
# [11] = tested on: rat; details: Prenatal developmental toxicity study, sprague dawley, Oral, Gavage/Intubation, dose end: 15 GD
# [12] = systemic / clinical chemistry / alkaline phosphatase (alp/alk) / alkaline phosphatase (alp/alk)
# [13] = systemic / hematology / platelet / platelet
# [14] = systemic / in life observation / body weight / body weight + systemic / in life observation / body weight / body weight gain + systemic / …
# [15] = systemic / in life observation / body weight / body weight + systemic / pathology microscopic / liver / hypertrophy
# [16] = group: offspring, systemic / organ weight / liver / nos
# [17] = group: parental, systemic / organ weight / testes / nos
# [18] = group: reproductive, reproductive / reproductive performance / precoital interval / precoital interval
# [19] = systemic / clinical chemistry / thyroxine (t4) / thyroxine (t4), total
# [20] = systemic / pathology microscopic / liver / adenoma + systemic / pathology microscopic / lung / adenoma + systemic / clinical chemistry / …
# [21] = left thyroid + systemic / clinical chemistry / [other] / [other] + systemic / in life …
# [22] = group: developmental, developmental / developmental malformation / bone / bent + developmental / developmental malformation / bone / incomplete ossification + …
# [23] = group: maternal, reproductive / reproductive performance / postimplantation loss / postimplantation loss + reproductive / reproductive performance / …
smiles,measurement,setting,value
"O=S(=O)(c1ccc(Cl)cc1)c1ccc(Cl)cc1 [4,4'-Dichlorodiphenyl sulfone]",LEL,[1]; [12],2 mg/kg/day
same,NEL,[1]; [12],< 2 mg/kg/day
same,NOAEL,[1]; systemic / organ weight / liver / absolute + systemic / organ weight / liver / relative to body weight + systemic / clinical chemistry / …,2 mg/kg/day
same,LOAEL,[1]; systemic / organ weight / liver / absolute + systemic / organ weight / liver / relative to body weight + systemic / pathology microscopic / …,6 mg/kg/day
same,LEL,[2]; [13],3.5 mg/kg/day
same,NEL,[2]; [13],< 3.5 mg/kg/day
same,LOAEL,[2]; [14],50 mg/kg/day
same,NOAEL,[2]; [14],15 mg/kg/day
same,LEL,[3]; systemic / in life observation / body weight / body weight,1.5 mg/kg/day
same,NEL,[3]; [15],0.5 mg/kg/day
same,NOAEL,[3]; [15],1.5 mg/kg/day
same,LOAEL,[3]; systemic / pathology microscopic / liver / hypertrophy,5 mg/kg/day
same,LEL,[4],3.8 mg/kg/day
same,LOAEL,[4],3.8 mg/kg/day
same,NEL,[4],< 3.8 mg/kg/day
same,NOAEL,[4],< 3.8 mg/kg/day
CCCCCC[C@H]1C(=O)O[C@H](C)[C@H](NC(=O)c2cccc(NC=O)c2O)C(=O)O[C@@H](C)[C@@H]1OC(=O)CC(C)C [Antimycin A],LEL,[5],0.5 mg/kg/day
same,LOAEL,[5],0.5 mg/kg/day
same,NEL,[5],< 0.5 mg/kg/day
same,NOAEL,[5],< 0.5 mg/kg/day
S=C([S-])NCCNC(=S)[S-].[Mn+2] [Maneb],LOAEL,"[6]; group: offspring, developmental / developmental landmark / vaginal opening / vaginal opening",106 mg/kg/day
same,NOAEL,"[6]; group: offspring, developmental / developmental landmark / vaginal opening / vaginal opening + systemic / in life observation / body weight / offspring (pup) …",25.1 mg/kg/day
same,LEL,[6]; [16],5.8 mg/kg/day
same,NEL,[6]; [16],< 5.8 mg/kg/day
same,LOAEL,"[6]; group: parental, systemic / organ weight / lung / nos",21.2 mg/kg/day
same,NOAEL,"[6]; group: parental, systemic / organ weight / lung / nos + systemic / in life observation / body weight / body weight + systemic / in life observation / body …",5.3 mg/kg/day
same,LEL,[6]; [17],5.3 mg/kg/day
same,NEL,[6]; [17],< 5.3 mg/kg/day
same,LEL,[6]; [18],106 mg/kg/day
same,LOAEL,[6]; [18],> 106 mg/kg/day
same,NEL,[6]; [18],25.1 mg/kg/day
same,NOAEL,[6]; [18],≥ 106 mg/kg/day
same,LEL,[7],7.18 mg/kg/day
same,LOAEL,[7],33.8 mg/kg/day
same,NEL,[7],1.71 mg/kg/day
same,NOAEL,[7],6.36 mg/kg/day
same,LEL,[8]; systemic / organ weight / adrenal gland / absolute,21.8 mg/kg/day
same,NEL,[8]; systemic / organ weight / adrenal gland / absolute + systemic / pathology microscopic / pituitary gland / adenoma + systemic / pathology …,7.32 mg/kg/day
same,LOAEL,[8]; systemic / pathology microscopic / urinary bladder / dysplasia + systemic / clinical chemistry / [other] / [other] + systemic / clinical …,68.4 mg/kg/day
same,NOAEL,[8]; systemic / pathology microscopic / urinary bladder / dysplasia + systemic / pathology microscopic / skeletal muscle / sarcoma + systemic / …,20.4 mg/kg/day
same,LEL,[9]; [19],10.8 mg/kg/day
same,NEL,[9]; [19],< 10.8 mg/kg/day
same,LOAEL,[9]; [20],> 355 mg/kg/day
same,NOAEL,[9]; [20],≥ 355 mg/kg/day
same,LEL,[10]; left thyroid,15.5 mg/kg/day
same,LOAEL,[10]; left thyroid,15.5 mg/kg/day
same,NEL,[10]; [21],5.2 mg/kg/day
same,NOAEL,[10]; [21],5.2 mg/kg/day
same,LEL,[11]; [22],500 mg/kg/day
same,LOAEL,[11]; [22],> 500 mg/kg/day
same,NEL,[11]; [22],100 mg/kg/day
same,NOAEL,[11]; [22],≥ 500 mg/kg/day
same,LEL,[11]; [23],100 mg/kg/day
same,LOAEL,[11]; [23],100 mg/kg/day
same,NEL,[11]; [23],20 mg/kg/day
same,NOAEL,[11]; [23],20 mg/kg/day
